Test results: US20090275496A1, “Effective quantitation of complex peptide mixtures in tissue samples and improved therapeutic methods” (Peptimmune, Inc., priority 2004, published 2009)

Columns and labels:
[1] = system: anti-PI-2301 biotinylated antibody (bAb); assay: Direct competition ELISA, specificity of the anti-PI-2301 biotinylated antibody; format: binding, rabbit
Experimental: A direct competition ELISA was carried out for the detection and quantitation of PI-2301, an RSP composition. […] Unbound material was washed away and diluted streptavidin-horseradish peroxidase (HRP) conjugate was added to the wells. After washing away any unbound streptavidin conjugate, substrate for HRP catalyzed […] was added to the wells and incubated, yielding a blue color that turns yellow when stop solution is added. The optical density of the color was measured at 450 nm using a microtiter plate reader (for example, Bio-Tek ELx405) and a standard curve was generated.
Specificity is the ability of a method to measure the material of interest to the exclusion of other similar compounds. In this method, specificity is a function of the anti-PI-2301 biotinylated antibody (bAb). If the bAb recognizes, and binds preferentially to, the compound in the serum the bAb will be washed away and the final A450 value will be low. […] Table 5 summarizes the A450 specificity data for 3 compounds spiked into mouse serum.

[2] = Serum concentration and bioavailability after administration to mice (ELISA); format: in vivo, CD-1 mice
Experimental: The blood sample was allowed to clot at room temperature for 15-30 minutes and then the tube was centrifuged at 4° C., 10,000 RPM, for 10 minutes in order to isolate serum. Serum was collected, aliquoted, and stored −80° C. for future testing.
After washing away any unbound conjugate, substrate was added to the wells and incubated, yielding a blue color that turned yellow when stop solution was added. The optical density was measured at 450 nm and a standard curve was generated.

[3] = system: myeloid cells isolated from femurs of immunologically naive mice; assay: In vitro effects on macrophages: cytokines and chemokines in supernatants; format: cell-based; settings: culture supernatant
Excerpt: Isolated cells were labeled with magnetic beads and T- and B-cells were depleted from the sample. […] TNFα, IL-6, CXCL1 and CXCL2 as inflammatory markers, and IL-12p70, CXCL13, and CCL22 as regulatory markers.

HLA-DR2 (DRB1*1501) = HLA-DR2 (DRB1*1501) (Homo sapiens, UniProt P01903+P01911); settings: MS-associated, peptide-specific manner; cited from earlier work
HLA-DR1 (DRB1*0101) = HLA-DR1 (DRB1*0101) (Homo sapiens, UniProt P01903+P01911, A100R/D57E/F55L/F60I/F76Y/I96L/L162R/M171V/P40L/Q125E/R42F/V115G/Y59C); settings: RA-associated, peptide-specific manner; cited from earlier work
HLA-DR4 (DRB1*0401) = HLA-DR4 (DRB1*0401) (Homo sapiens, UniProt P01903+P01911, A100K/A169T/F76Y/I96L/K127E/L162R/M171V/N62H/P40V/Q125Y/R42H/S133A/S149N/S66Y/V115G/V209L/W38E); settings: RA-associated, peptide-specific manner; cited from earlier work
MS = settings: Bornstein 1987; Johnson 1995; cited from earlier work

glatiramer acetate [Cop-1]
detection by the antibody for PI-2301 [1]: detects Cop-1 efficiently | time of peak serum concentration ([2]; after subcutaneous administration to mice): about 15 minutes | administered amount available in the plasma (bioavailability) ([2]; mice, single subcutaneous or intravenous administration): About 8.5% | expression of CXCL1 [3]: no significant effect | expression of CXCL2 [3]: no significant effect | expression of IL-6 [3]: no significant effect | expression of TNFα [3]: no significant effect | binding to purified HLA-DR2 (DRB1*1501) (HLA-DR2 (DRB1*1501)): high affinity | binding to purified HLA-DR1 (DRB1*0101) (HLA-DR1 (DRB1*0101)): high affinity | binding to purified HLA-DR4 (DRB1*0401) (HLA-DR4 (DRB1*0401)): high affinity | effect on MS in patients (MS): ameliorate MS but does not suppress the disease entirely
